Laboratory results published in PubChem BioAssay AID463204 (Broad Institute, 2010).
The source made the active and inactive calls.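 How the source made its calls: active means AC50 no more than ten times the top concentration tested, that is within one log above it; inconclusive means flat curve fit with activity between 30% and 70%, or invalid poor fit; inactive means AC50 beyond ten times the top tested dose.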

system: S. cerevisiae Mot1-301 ts growth rescue, BacTiter-Glo ATP luminescence; assay: restored Mot1-301 yeast growth at 38.5C – whole organism, S. cerevisiae, Mot1-301 ts mutant, luminescence, dose retest, SUMOylation pathway inhibitor project, confirmation (AID 463204);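 further: growth at restrictive 38.5 degrees C of Mot1-301 OY566 strain; actives raise luminescence by restoring growth of the ts mutant at high temperature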

Structure (SMILES)	AC50
O=C(CSc1nnc(NC(=O)CN2CCOCC2)s1)Nc1ccccc1	> 42 µM (inactive)
CN(c1cccnc1)c1ncnc2[nH]ncc12	> 42 µM (inactive)
Nc1ccnc(=O)[nH]1	> 42 µM (inactive)
COc1ccccc1NC(=O)NCCc1c[nH]c2ccccc12	> 42 µM (inactive)
CC(C)NC(=O)c1ccccc1-c1ccccc1	> 42 µM (inactive)
COc1ccc(C2=Nn3c(nnc3-c3ccco3)SC2)cc1	> 42 µM (inactive)
O=C(C[n+]1ccc(C(=O)N/N=C/c2ccc(Cl)cc2Cl)cc1)c1ccccc1	> 42 µM (inactive)
CN(C)CCNC(=O)c1c(O)c2c([nH]c1=O)CCCC2	> 42 µM (inactive)
O=C(c1ccc([N+](=O)[O-])cc1)N1CCN(c2ncc(Br)cn2)CC1	> 42 µM (inactive)
CC[C@H]1CCCCc2ccccc2[C@@H](C(=O)C[C@@H](O)CC(C)=O)OC1=O	14.2 µM
O=C(/C(=N\Nc1ccc(Br)cc1)Sc1nnnn1-c1ccccc1)c1ccccc1	> 42 µM (inactive)
COc1ccc2c(c1)[C@@]13CCC=C[C@H]1[C@@H](C2)NCC3	> 42 µM (inactive)
CCC(NC(=O)c1ccccc1NC(=O)c1ccco1)C(=O)NC1CCCCC1 (stereo not given)	> 42 µM (inactive)
CC(C)c1ccc(-c2cc(C(=O)N3CCOCC3)c3cc(Br)ccc3n2)cc1	> 42 µM (inactive)
COc1ccc(Cn2nnnc2CN2CCN(c3ccc(OC)cc3)CC2)cc1	> 42 µM (inactive)
Cc1ccc(NC(=O)CCS(=O)(=O)c2ccc3nc(C)sc3c2)cc1	> 42 µM (inactive)
O=C(Cc1cccs1)Nc1nnc(-c2ccncc2)s1	> 42 µM (inactive)
CCOc1ccc(-c2c(C(=O)N/N=C/c3ccncc3)nnn2-c2nonc2N)cc1	> 42 µM (inactive)
CC1C(=O)CC(c2ccccc2)N(C)C1c1ccccc1 (stereo not given)	33.7 µM
O=C(CN1CCc2ccccc21)NN1CC(=O)N(c2ccc(Cl)cc2)CC1=O	> 42 µM (inactive)
O=C(CCC(=O)OCC(=O)c1ccc(Br)cc1)Nc1cccc2cccnc12	> 42 µM (inactive)
CCCCC(O)(c1ccc(F)cc1)C(CN1CCOCC1)c1ccc(Cl)cc1 (stereo not given)	5.49 µM
COc1cccc(C2CC(c3cccc(NS(C)(=O)=O)c3)=NN2C(=O)c2ccccc2)c1OC (stereo not given)	> 42 µM (inactive)
Cc1ccc(/C(N)=N/OC(=O)/C=C/c2ccccc2)cc1	> 42 µM (inactive)
CCCN1CCN(CCCNC(=O)CCn2nc(-c3ccccc3)ccc2=O)CC1	> 42 µM (inactive)

Structure (SMILES)	AC50
Cc1ccc2nc(NC(=O)CNS(=O)(=O)c3ccc(Br)s3)sc2c1	> 42 µM (inactive)
O=C(CSc1nc2ccc(Nc3nc(N4CCOCC4)nc(N4CCOCC4)n3)cc2s1)N1CCOCC1	> 42 µM (inactive)
NC(=O)c1cccc2cc3ccccc3cc12	> 42 µM (inactive)
COc1ccc(-n2c(-c3ccccc3)nc3ccccc3c2=O)cc1	> 42 µM (inactive)
Cn1c(CN2CCOCC2)nnc1SCC(=O)Nc1cc(Cl)ccc1Cl	> 42 µM (inactive)
Nc1cc(Cl)ccc1N1CCOCC1	> 42 µM (inactive)
O=C1CN(C(=O)c2ccccc2F)C(c2ccccc2)c2cc(Cl)ccc2N1 (stereo not given)	1.84 µM
O=c1nc2ccc(Cl)cn2c2ccc(S(=O)(=O)N3CCOCC3)cc12	> 42 µM (inactive)
CCOc1ccc(CCNC(=O)COC(=O)c2cccc(OC)c2O)cc1OCC	> 42 µM (inactive)
Cc1nc2ccccc2c(=O)n1CC(=O)N1CCOCC1	> 42 µM (inactive)
O=C(Nc1ccccc1)N1CCN(CCc2ccccc2)CC1	> 42 µM (inactive)
Cc1c(OC(C)C(=O)N2C[C@H]3C[C@@H](C2)c2cccc(=O)n2C3)ccc2c3c(c(=O)oc12)CCCC3 (stereo not given in full)	> 42 µM (inactive)
CCCCC(=O)NCCc1ccc(S(N)(=O)=O)cc1	> 42 µM (inactive)
Nc1ccc(C2(c3ccc(N)cc3)OC(=O)c3ccccc32)cc1	> 42 µM (inactive)
Cn1nc(C(C)(C)C)c([N+](=O)[O-])c1C(=O)Nc1ccccc1	> 42 µM (inactive)
COc1ccc(Oc2c(C)oc3cc(OC(=O)N(C)C)ccc3c2=O)cc1	> 42 µM (inactive)
O=C(COc1ccccc1Cl)c1ccc[nH]1	> 42 µM (inactive)
COc1ccc(C(=O)CC(=O)C(=O)Nc2ccc(C)c(C)c2)cc1	> 42 µM (inactive)
NS(=O)(=O)c1ccc(CCNC(=O)c2ccc([N+](=O)[O-])s2)cc1	> 42 µM (inactive)
C/C(=N\N=C(/N)SC1CC(=O)N(c2cccc(Cl)c2)C1=O)c1cccs1 (stereo not given)	> 42 µM (inactive)
COc1cccc(C(=O)N2CCN(S(=O)(=O)Cc3ccccc3)CC2)c1OC	> 42 µM (inactive)
CS(=O)(=O)C1=NSC2=NC(=O)/C(=C\c3ccc(OS(=O)(=O)c4ccccc4)cc3)C(=N)N21	> 42 µM (inactive)
Cc1nnc(C)n1/N=C/c1cc2ccccc2nc1Cl	> 42 µM (inactive)
COc1cc(S(=O)(=O)N2CCN(c3ccccc3)CC2)ccc1F	> 42 µM (inactive)
O=c1c2ccccc2nc(SCc2ccc([N+](=O)[O-])cc2)n1CCCO	> 42 µM (inactive)
